From ChEMBL document CHEMBL1255489, “Low prevalence of fks1 hot spot 1 mutations in a worldwide collection of Candida strains” (2010)
≈ marks a conversion by molar mass, not a printed value. Starred links: 1 amine or outer side, 2 acyl side, 3 side chain; linkers in the order of their positions; H or OH if unused. Positions of bridges follow the written chain, without caps; N, C: chain ends. Non-standard residues stand in square brackets, D forms with d. Residues, ends and D or L forms follow the SMILES beside them. *: point of attachment. hTyr(3S-OH,4S-OH,3'-OSO3H) = N[C@H](C(=O)O)[C@H](O)[C@@H](O)c1ccc(O)c(OS(=O)(=O)O)c1; pTerphenylCO(4''-OnC5H11) = CCCCCOc1ccc(-c2ccc(-c3ccc(C(=O)*)cc3)cc2)cc1; Orn(4R-OH,5R-OH) = O=C([C@H](C[C@@H](O)[C@@H](O)N[*:3])N[*:1])[*:2]; hTyr(3S-OH,4S-OH) = N[C@H](C(=O)O)[C@H](O)[C@@H](O)c1ccc(O)cc1; Pro(3S-OH,4S-Me) = C[C@H]1CN[C@H](C(=O)O)[C@H]1O; X1 = CCCCCOc1ccc(-c2cc(-c3ccc(C(=O)*)cc3)no2)cc1; Gln(3R-OH) = NC(=O)C[C@@H](O)[C@H](N)C(=O)O; Hyp = O=C(O)[C@@H]1C[C@@H](O)CN1

Key:
Type in all cases: functional
Candida tropicalis [1] = experiment: Antifungal activity against Candida tropicalis isolate 4780 expressing fks1 F641S mutant after 24 to 48 hrs by broth microdilution method
Nakaseomyces glabratus [2] = experiment: Antifungal activity against Candida glabrata isolate 4708 expressing fks1 S645P mutant after 24 to 48 hrs by broth microdilution method
Candida albicans [3] = experiment: Antifungal activity against Candida albicans expressing fks1 F641S mutant after 24 to 48 hrs by broth microdilution method
Candida albicans [4] = experiment: Antifungal activity against Candida albicans isolate 4700 expressing fks1 F641Y mutant after 24 to 48 hrs by broth microdilution method
Nakaseomyces glabratus [5] = experiment: Antifungal activity against Candida glabrata isolate 4690 expressing fks2 L644W mutant after 24 to 48 hrs by broth microdilution method
Nakaseomyces glabratus [6] = experiment: Antifungal activity against Candida glabrata after 24 to 48 hrs by broth microdilution method
Pichia kudriavzevii [7] = experiment: Antifungal activity against Candida krusei after 24 to 48 hrs by broth microdilution method
Candida albicans [8] = experiment: Antifungal activity against Candida albicans after 24 to 48 hrs by broth microdilution method
Nakaseomyces glabratus [9] = experiment: Antifungal activity against Candida glabrata isolate 4720 expressing fks2 S645P mutant after 24 to 48 hrs by broth microdilution method
Candida tropicalis [10] = experiment: Antifungal activity against Candida tropicalis isolate 4748 expressing fks1 F641S mutant after 24 to 48 hrs by broth microdilution method
Nakaseomyces glabratus [11] = experiment: Antifungal activity against Candida glabrata isolate 4707 expressing fks2 S645P mutant after 24 to 48 hrs by broth microdilution method
Pichia kudriavzevii [12] = experiment: Antifungal activity against Candida krusei ATCC 6258 expressing fks1 L644W mutant by EUCAST method
Candida tropicalis [13] = experiment: Antifungal activity against Candida tropicalis expressing fks1 L644W mutant by EUCAST method
Candida = experiment: Antifungal activity against Candida species after 24 to 48 hrs by broth microdilution method

Compound	MIC (Candida tropicalis [1])	MIC (Nakaseomyces glabratus [2])	MIC (Candida albicans [3])	MIC (Candida albicans [4])	MIC (Nakaseomyces glabratus [5])	MIC (Nakaseomyces glabratus [6])	MIC (Pichia kudriavzevii [7])	MIC (Candida albicans [8])	MIC (Nakaseomyces glabratus [9])	MIC (Candida tropicalis [10])	MIC (Nakaseomyces glabratus [11])	MIC (Pichia kudriavzevii [12])	MIC (Candida tropicalis [13])	MIC (Candida)
CCCCCOc1ccc(-c2ccc(-c3ccc(C(=O)N[C@H]4C[C@@H](O)[C@@H](O)NC(=O)[C@@H]5[C@@H](O)[C@@H](C)CN5C(=O)[C@H]([C@@H](C)O)NC(=O)[C@H]([C@H](O)[C@@H](O)c5ccc(O)cc5)NC(=O)[C@@H]5C[C@@H](O)CN5C(=O)[C@H]([C@@H](C)O)NC4=O)cc3)cc2)cc1 [ANIDULAFUNGIN] ({pTerphenylCO(4''-OnC5H11)}-[Orn(4R-OH,5R-OH)]T[Hyp][hTyr(3S-OH,4S-OH)]T[Pro(3S-OH,4S-Me)]; lactam 1-C)	1 mg/L (≈ 0.877 µM)	4 mg/L (≈ 3.51 µM)	0.12 mg/L (≈ 0.105 µM)	0.12 mg/L (≈ 0.105 µM)	0.12 mg/L (≈ 0.105 µM)	≤ 0.12 mg/L	0.06 mg/L (≈ 0.0526 µM)	≤ 0.12 mg/L	4 mg/L (≈ 3.51 µM)	1 mg/L (≈ 0.877 µM)	4 mg/L (≈ 3.51 µM)	–	–	–
CCCCCOc1ccc(-c2cc(-c3ccc(C(=O)N[C@H]4C[C@@H](O)[C@@H](O)NC(=O)[C@@H]5[C@@H](O)[C@@H](C)CN5C(=O)[C@H]([C@H](O)CC(N)=O)NC(=O)[C@H]([C@H](O)[C@@H](O)c5ccc(O)c(OS(=O)(=O)O)c5)NC(=O)[C@@H]5C[C@@H](O)CN5C(=O)[C@H]([C@@H](C)O)NC4=O)cc3)no2)cc1 [MICAFUNGIN] (X1-[Orn(4R-OH,5R-OH)]T[Hyp][hTyr(3S-OH,4S-OH,3'-OSO3H)][Gln(3R-OH)][Pro(3S-OH,4S-Me)]; lactam 1-C)	0.5 mg/L (≈ 0.394 µM)	4 mg/L (≈ 3.15 µM)	0.5 mg/L (≈ 0.394 µM)	0.25 mg/L (≈ 0.197 µM)	0.06 mg/L (≈ 0.0472 µM)	≤ 0.06 mg/L	–	≤ 0.06 mg/L	4 mg/L (≈ 3.15 µM)	0.5 mg/L (≈ 0.394 µM)	2 mg/L (≈ 1.57 µM)	–	–	–
CC[C@H](C)C[C@H](C)CCCCCCCCC(=O)N[C@H]1C[C@@H](O)[C@@H](NCCN)NC(=O)[C@@H]2[C@@H](O)CCN2C(=O)[C@H]([C@H](O)CCN)NC(=O)[C@H]([C@H](O)[C@@H](O)c2ccc(O)cc2)NC(=O)[C@@H]2C[C@@H](O)CN2C(=O)[C@H]([C@@H](C)O)NC1=O [CASPOFUNGIN]	4 mg/L (≈ 3.66 µM)	≥ 8 mg/L	2 mg/L (≈ 1.83 µM)	1 mg/L (≈ 0.915 µM)	0.25 mg/L (≈ 0.229 µM)	≤ 0.06 mg/L	1 mg/L (≈ 0.915 µM)	≤ 0.06 mg/L	≥ 8 mg/L	4 mg/L (≈ 3.66 µM)	8 mg/L (≈ 7.32 µM)	8 mg/L (≈ 7.32 µM)	1 mg/L (≈ 0.915 µM)	≤ 0.008 mg/L
